Test results reported in patent publication US8937167B2 (Washington University, priority 2009, dated 2015).
Entries after “also recorded” stand apart in the source; their conditions may differ. Where two headings read alike, the source gives them in different places.

Experiments:
[1] = biological target: T1, FimH lectin domain (residues 1-158 of UPEC J96 FimH) (Escherichia coli, UniProt P08191); type: binding; conditions: Table 21
T1 construct: made in house
Procedure: DSF measures the melting temperature change of protein when binding to small molecules. Melting temperature shifts are proportional to the free energy of binding, and melting temperatures increase even as ligand concentration exceeds the Kd.
FimH lectin domain (residues 1-158 of UPEC J96 FimH, without an affinity tag) was purified as described previously. Five micrograms FimH in 5 μl HBS were mixed with HBS to yield a final volume of 50 μl containing compound at a final concentration of 100 μM and a “5×” final concentration of SYPRO Orange (sold as a “5000×” stock in DMSO and mixed with HBS to a working stock of 50× immediately before use: Life Technologies Inc.; Grand Island, N.Y.). Compounds were diluted to 100 μM from stocks in DMSO and compared to matched control wells with FimH alone plus 0.2% DMSO. 50 μl reactions were placed in 96-well clear-bottom PCR plates and subjected to a melt curve from 20-90° C. in 0.5° C. increments of 15 seconds each followed by a fluorescence read of the “HEX” channel in a Bio-Rad CFX96 thermocycler (Bio-Rad, Hercules, Calif.). Melt curves were fitted to the Boltzmann equation to determine the melting temperature (Tm) (y=A2+(A1−A2)/(1+exp((x−x0)/dx)) where x0 is the Tm) using OriginPro 8 (OriginLab, Northampton Mass.).

[2] = type: in vitro ADME; conditions: 64800 sec, […], pH 7.4
Procedure: Materials. The assay was carried out using Multiscreen PVDF 96-well plates (Millipore, Billerica, Mass.) using the company's Transporter Receiver Plate. The lipid (dioleyoylphosphotidylcholine (DOPC):Stearic Acid (80:20, wt %) in dodecane was obtained from Avanti Polar lipids (Alabaster, Ala.). Hank's Buffered Salt Solution (HBSS), pH 7.4 was obtained from MediaTech (Manassas, Va.).
Methods. Each of the test compounds was diluted to 2.5 mM in DMSO (Sigma, St Louis, Mo.) and further diluted prior to testing to 2.5 μM in HBSS, pH 7.4. The assay was performed using a Millipore 96-well Multiscreen-IP PAMPA plate, 5 μl of the lipid suspension was directly added to the PVDF membrane of the filter plate. Immediately following the addition of the lipid to the membrane, 200 μl of HBSS solution containing the test compound was added to the donor (upper) chamber. HBSS (300 μl) is also added to the receiver plate and the filter and receiver plates assembled and incubated overnight at room temperature in a moistened sealed bag to prevent evaporation. The concentration in the receiver plate as well as an equilibrium plate, that represents a theoretical, partition-free sample, was determined by HPLC-tandem mass spectrometry. Analysis of each compound was performed in triplicate.
Analysis. Analysis of both the acceptor and equilibrium samples were performed using an AB 3200 triple quadripole mass spectrometer linked to a Shimadzu DGU-20A HPLC with a Prevail C18 column (3 μm, 2.1×10 mm) with a flow rate of 0.35 ml/min. The mobile phase used was A: 0.1% Formic Acid in water, B: 0.1% Formic Acid in methanol. The elation gradient method is described in the table. Data acquisition and peak height determination was performed using Analyst v.1.4.2.
Calculations. The login of the effective permeability (LogPe) was calculated using the following equation
[formula] [formula] Where the drug concentration is the peak areas for the analyte and VD and VA is the volume of the donor and acceptor compartment respectively. The area is the surface area of the PVDF membrane (0.11 cm^2) and time is the incubation in seconds (64,800 sec). Each value is the mean of triplicates performed on the same day.

FimH [3] = biological target: T2, FimH (Escherichia coli, UniProt Q1R2J4); conditions: for HAI Titer EC>50: Table 21;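 on all read-outs here: hemagglutination inhibition of guinea pig erythrocytes agglutinated by type 1 piliated uropathogenic E. coli via FimH mannose binding, quantified through serial dilutions of compound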
Procedure: (§1) In some embodiments, activity of the compound is measured using hemmagglutination titer of guinea pig red blood cells. Hemagglutination of guinea pig red blood cells by type1 piliated UPEC is dependent upon FimH mannose binding ability and serial dilutions allow a quantitative analysis.
(§2) Biological activity against FimH was evaluated using a guinea pig red blood cell-based hemagglutination (HA) assay (ref) in which the concentration of the mannoside on reducing agglutination by 50% was used as the primary endpoint (50% HA titer).
(§3) Hemagglutination of guinea pig red blood cells by type1 piliated UPEC is dependent upon FimH mannose binding ability. Serial dilutions allow a quantitative analysis using this assay.
(§4) Hemagglutination assays for mannose-sensitive agglutination of guinea pig red blood cells were performed as previously described.

UTI89 biofilm = test: UTI89 type 1 dependent biofilm formation (inhibition/prevention) assay on PVC, crystal violet; type: cell-based, uropathogenic E. coli UTI89; conditions: for IC50: Escherichia coli, read-out: Biofilm Prevention IC50
How it was run: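 Prevention: UTI89 grown in LB in PVC wells at 23° C with mannoside at varying concentrations for 48 h, then crystal violet stained and quantified. Disruption: 24 h UTI89 biofilm, mannoside added, grown 16 h more, then crystal violet.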

UTI89 [4] = test: Mouse UTI model, bladder bacterial titers (CFU); type: in vivo, E. coli (UPEC); host C3H/HeN mouse; conditions: 6 hours post-infection
Procedure: For mannoside treatment, bacteria were incubated with 1 mM ZFH56 prior to inoculation. Every 24 h for 3 days, mice were transurethrally inoculated with 1 mM ZFH56. For antibiotic treatment, mice were inoculated with UTI89 and immediately given antibiotics in the drinking water for 3 days. Antibiotics used were trimethoprim-sulfamethoxazole (SXT) at […], respectively. For dual treatment, bacteria were incubated with 1 mM ZFH56 prior to inoculation. Every 24 h for 3 days, mice were transurethrally inoculated with 1 mM ZFH56. Additionally, mice were immediately given antibiotics in the drinking water for 3 days as in the antibiotic only treatment. Urine was collected every day for 13 days. At 2 weeks, mice were sacrificed and bladders were titered.
UTI89 biofilm was grown in LB+/− mannoside for 24 h at 22° C. in PVC plates and quantitated using crystal violet. UTI89 biofilm for confocal microscopy was grown in LB for 24 h at 22° C. on PVC coverslips. Mannoside was then added and biofilm was grown for an additional 16 h. Coverslips were then washed in PBS, fixed in 2% paraformaldehyde and stained with SYTO9 prior to confocal microscopy. For all animal experiments UTI89 or PBC-1 was grown 2×24 h statically in LB at 37° C. and inoculated at a dose of 1×10^7 bacteria in 50 μl. All mice used were female C3H/HeN (Jackson). For the pretreatment studies, bacteria were incubated with mannoside for 20 min prior to inoculation into the mouse. […] For CFU counts, bladders were harvested at 6 hpi and placed in 1 mL PBS. Bladders were then homogenized, diluted and plated on LB. After growth at 37° C. overnight, bacterial counts were determined. LacZ staining and gentamicin protection assays were performed at 6 hpi. […] Water was changed daily with fresh antibiotics. Standard growth curve assays and hemagglutination assays were performed with TMP-SMZ. All statistical analysis performed was a two-tailed Mann-Whitney U test.
Animal infections. Bacteria were grown under type 1 pili-inducing conditions (2×24 h at 37° C. statically in LB). The bacteria were harvested and resuspended to an OD600 of 0.5 in PBS. Eight-week-old C3H/HeN (Harlan) female mice were anesthetized by inhalation of isoflurane and infected via transurethral catheterization with 50 μl of the bacterial suspension, resulting in 1-2×10^7 inoculum. At 6 hpi, mice were sacrificed by cervical dislocation under anesthesia and the bladders were immediately harvested and processed as described below. All animal studies using mice were approved by the Animal Studies Committee of Washington University (Animal Protocol Number 20100002).
Bladder tissue bacterial titer determination. Mannoside ZFH-2056 was administered either IP (5 mg/kg) or orally (100 mg/kg) 30 min prior to inoculation with UTI89. […]

UTI89 [5] = test: Enumeration of bladder IBCs by LacZ staining in infected mice; type: in vivo, E. coli (UPEC); host C3H/HeN mouse; conditions: UTI89 inoculated in presence of pilicide; 6 hours post-infection
Procedure: After invasion, UPEC are able to rapidly replicate to form IBCs, thus dramatically expanding in numbers. After maturation of the IBC, bacteria are able to disperse from the biomass and spread to neighboring cells to expand the buildup in bacterial numbers via next generation IBC. The ability of mannosides to block IBC formation was evaluated based on LacZ staining of whole mount bladders, a protocol developed to enumerate IBCs. Whole bladder titers were also determined by quantifying colony forming units (CFUs) at 6 hours post-infection and later time points as test compounds were further developed.
Enumeration of bladder IBCs. For bacterial pretreatment experiments, mannoside was added to the bacterial suspension and incubated for 20 min. For animal pretreatment experiments, mannoside ZFH-2056 was administered either IP (5 mg/kg) or orally (100 mg/kg) 30 min prior to inoculation with UTI89. To accurately count the number of IBCs, mice were sacrificed 6 hpi and bladders were aseptically removed, bisected, splayed on silicone plates and fixed in 2% paraformaldehyde (v/v). IBCs, readily discernable as punctate violet spots, were quantified by LacZ staining of whole bladders.
For animal pretreatment experiments, mannoside ZFH-2056 was administered either IP (5 mg/kg) or orally (100 mg/kg) 30 min prior to inoculation with UTI89. To accurately count the number of IBCs, mice were sacrificed 6 hpi and bladders were aseptically removed, bisected, splayed on silicone plates and fixed in 2% paraformaldehyde (v/v). IBCs, readily discernable as punctate violet spots, were quantified by LacZ staining of whole bladders.

FimH [6] = biological target: T2, FimH; test: cell-based; conditions: read-out: HAI Titer EC90
Procedure: as §1, §2, §3, §4

[7] = Table 17, Examples 30-36 numbering

Row | Compound | DSF Melting Temp. [1] [C.] | PAMPA (LogPe) [2] | HAI Titer EC>90 (FimH [3]) [µM] | HAI Titer EC>50 (FimH [3]; ZFH/JWJ codes) [µM] | HAI Titer EC>90 (FimH [3]; Table 22, ZFH/JWJ codes) [µM] | IC50 (UTI89 biofilm) [nM] | HAI Titer EC>90 (FimH [3]; [7]) [µM] | EC90 (FimH [6]) [nM] | also measured
1 | CNC(=O)c1cc(C(=O)NC)cc(-c2ccc(OC3O[C@@H](CO)[C@@H](O)[C@H](O)[C@H]3O)c(C(F)(F)F)c2)c1 (stereo partly drawn) [Compound 1JWJ149, N1,N3-dimethyl-5-[3-(trifluoromethyl)-4-[(3R,4S,5S,6S)-3,4,5-trihydroxy-6-(hydroxymethyl)tetrahydropyran-2-yl]oxy-phenyl]benzene-1,3-dicarboxamide] | 76.15 | −6.27 | 0.008 | 0.008 | 0.008 | 43 |  |  | 
2 | CCCCCCCO[C@H]1O[C@H](CO)[C@@H](O)[C@H](O)[C@@H]1O [heptyl mannose] |  |  |  |  |  |  |  |  | virulence / bladder bacterial load (UTI89 [4]; UTI89 incubated with 5 mM compound before inoculation): significant attenuation of virulence; also recorded: reduction of bacterial load in the bladder; inhibition of UPEC biofilm formation in vitro (UTI89 biofilm; 1 mM): inhibited UPEC biofilm formation
3 | O=C(O)[C@@H]1CSc2c(-c3cccc(C(F)(F)F)c3)c(Cc3cccc4ccccc34)cc(=O)n21 [FN075, reference compound] |  |  |  |  |  |  |  |  | bacterial load within the bladder (UTI89 [4]; UTI89 inoculated in presence of pilicide): significant attenuation of virulence; also recorded: significantly reduced bacterial load; IBCs in the bladder (UTI89 [5]): significant attenuation of virulence; also recorded: significantly less IBCs
4 | COC(=O)c1cccc(-c2ccc(O[C@H]3O[C@H](CO)[C@@H](O)[C@H](O)[C@@H]3O)c(Cl)c2)c1 [Compound 4b, Methyl 3-[3-chloro-4-[(2R,3S,4S,5S,6R)-3,4,5-trihydroxy-6-(hydroxymethyl)tetrahydropyran-2-yl]oxy-phenyl]benzoate] |  | −4.29 |  |  |  | 260 | 0.03 | 30 | fold better HAI activity (FimH [3]; relative to matched pair 1, Examples 30-36 numbering): more than 30 fold
5 | CNC(=O)c1cccc(-c2ccc(OC3O[C@@H](CO)[C@@H](O)[C@H](O)[C@H]3O)c(C)c2)c1 (stereo partly drawn) [Compound 4ZFH269, N-methyl-3-[3-methyl-4-[(3R,4S,5S,6S)-3,4,5-trihydroxy-6-(hydroxymethyl)tetrahydropyran-2-yl]oxy-phenyl]benzamide] | 74.46 | −3.89 | 0.062 | 0.06 | 0.062 | 159 |  |  | 
6 | COC(=O)c1cccc(-c2ccc(O[C@H]3O[C@H](CO)[C@@H](O)[C@H](O)[C@@H]3O)c(C(F)(F)F)c2)c1 [Compound 4d, Methyl 3-[3-(trifluoromethyl)-4-[(2R,3S,4S,5S,6R)-3,4,5-trihydroxy-6-(hydroxymethyl)tetrahydropyran-2-yl]oxy-phenyl]benzoate] |  | −3.91 |  |  |  | 170 | 0.03 | 30 | 
